Measurements reported in patent publication US8003613B2, “Methods and compositions for inducing apoptosis” (University of Florida Research Foundation, Inc., priority 2003, dated 2011).
Read-outs that look alike come from different tables or passages of the source. Where no end group is shown, it is not given here.

Columns and labels:
VEGFR-3 = details: no method given; cited from earlier work
[1] = tested on: BT474, BT20, and MCF7 breast cancer cells; assay: Displacement of FAK from focal adhesions, rounding and detachment in breast cancer cells; format: cell-based, human; details: peptide coupled to TAT-FITC
Procedure: (§1) Visualization and penetration of Peptide-35 into breast cancer cells was accomplished by coupling the peptide to FITC and using a TAT penetration sequence. Apoptosis was measured using the Elisa Plus cell death detection assay after cells were treated with drug for 24 hours. Apoptosis was further confirmed by the Hoechst assay.
(§2) Peptide-35 and AV3 (SEQ ID NO: 3) were coupled to a TAT sequence (YGRKKRRQRRR; SEQ ID NO: 5) to allow cellular penetration. Peptide-35 was also coupled to FITC for visualization of the peptide inside cells. Anti-FAK, anti-GST, anti-VEGFR-3, and anti-tubulin antibodies were used for immunoprecipitation and western blotting.
(§3) Cells were plated onto coverslips in six-well culture plates in medium for 24 hours and stained with anti-FAK and anti-VEGFR-3 antibodies and visualized for co-localization.

[2] = tested on: MCF10A normal breast cells; assay: Detachment assay, MCF10A; format: cell-based, human; details: 6 hours treatment
Procedure: (§4) Detached and attached cells after drug treatment for 6 hours cells were counted by hemocytometer. The percent detachment was calculated by dividing the number of detached cells by the total number of cells.

cancer cells = assay: Apoptosis in cancer cell lines; format: cell-based, human; details: different cancer cell lines
Procedure: as §1
(§5) Cells were treated with drug for 24 hours and then harvested. Hoechst 33342 was added and the specimens were mounted on glass coverslips. The slides were viewed under the microscope for apoptotic nuclei. The percent apoptosis was calculated by dividing the number of apoptotic cells by the total number of cells (300).

FAK-CD = biological target: T1, FAK-CD (Homo sapiens, UniProt Q05397); assay: Phage display / phage overlay binding to FAK-CD; details: Western blot/phage overlay
T1 construct: made in house
T1 sequence (Q05397 693-1052 limits assumed): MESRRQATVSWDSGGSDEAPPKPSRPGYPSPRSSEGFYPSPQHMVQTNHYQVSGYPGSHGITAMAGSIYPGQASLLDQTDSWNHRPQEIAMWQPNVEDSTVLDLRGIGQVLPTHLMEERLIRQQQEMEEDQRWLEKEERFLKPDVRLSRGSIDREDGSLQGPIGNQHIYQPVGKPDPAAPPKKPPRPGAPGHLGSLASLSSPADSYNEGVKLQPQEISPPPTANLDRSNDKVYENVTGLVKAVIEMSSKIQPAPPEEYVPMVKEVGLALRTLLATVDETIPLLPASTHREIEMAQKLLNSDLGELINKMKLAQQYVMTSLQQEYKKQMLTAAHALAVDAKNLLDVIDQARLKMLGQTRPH
Description: Peptides that bind FAK were isolated by phage display techniques. Baculovirus FAK-CD was the target protein and peptides were isolated from a phage library (New England Biolabs). After three rounds of panning, recovered phages were sequenced to identify potential peptides that bind FAK. Western-blot analysis and phage overlay were used to confirm the binding of these peptides to FAK. Peptide binding partners to FAK-CD were isolated by phage display. Baculoviral FAK-CD was used as a target and was coated to a plate and peptides were isolated from a phage library containing different 12-amino acids (New England Biolabs). After three rounds of panning, recovered phages were sequenced to identify potential peptides that bind FAK. […] Pure protein (4 μg) with loading buffer was boiled for 10 min and resolved by SDS-PAGE. Proteins were transferred to polyvinylidene difluoride membrane, probed with phage-35, and detected by chemiluminescence (Perkin-Elmer Life Sciences, Inc.).

normal MCF10A cells = assay: Displacement of FAK from focal adhesions, rounding and detachment in normal breast cells; format: cell-based, human; details: peptide coupled to TAT-FITC
Procedure: as §1, §2, §3

[3] = tested on: BT474 breast cancer cells; assay: Detachment assay, BT474; format: cell-based, human; details: 6 hours treatment
Procedure: as §4

[4] = tested on: BT474 breast cancer cells; assay: Apoptosis assay, BT474; format: cell-based, human; details: 24 hours treatment, confirmed by Hoechst assay
Procedure: as §1, §5

[5] = tested on: MCF10A normal breast cells; assay: Apoptosis assay, MCF10A; format: cell-based, human
Procedure: as §1, §5

IMR neuroblastoma cells [6] = assay: Detachment assay, IMR neuroblastoma; format: cell-based; details: IMR neuroblastoma cells with high VEGFR-3; peptide conjugated with TAT
Procedure: as §4

IMR neuroblastoma cells [7] = assay: Apoptosis assay, IMR neuroblastoma; format: cell-based; details: IMR neuroblastoma cells with high VEGFR-3; peptide conjugated with TAT
Procedure: as §5

[8] = tested on: Mouse Fibroblast, FAK/FAK+; assay: Detachment assay, mouse fibroblasts; format: cell-based; details: FAK+ compared with FAK-deficient
Procedure: BT474 cells were maintained in RPMI 1640 with 10% fetal bovine serum, 10 μg/ml insulin, and 2 mM L-glutamine. Mouse embryonic fibroblasts were maintained in DMEM with 10% FBS, Amphotericin B, and NEAA. HEK293 human embryonic kidney cells were maintained in DMEM with 10% FBS, and 2 mM L-glutamine. All cells were incubated at 37° C. in 5% CO2. Detached and attached cells after drug treatment for 6 hours cells were counted by hemocytometer. The percent detachment was calculated by dividing the number of detached cells by the total number of cells.

[9] = biological target: T2, chicken FAT, FAK C-terminal domain (Gallus gallus, UniProt Q00944); assay: NMR analysis of peptide binding to FAT domain; details: preliminary NMR analysis
T2 sequence (Q00944 915-1046 limits assumed): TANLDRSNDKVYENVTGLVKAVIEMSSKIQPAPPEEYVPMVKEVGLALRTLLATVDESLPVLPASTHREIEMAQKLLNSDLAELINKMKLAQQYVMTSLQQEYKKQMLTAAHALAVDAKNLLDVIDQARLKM
Procedure: Structural analysis of VEGFR-3 peptide binding to the FAT domain of FAK is performed. Structural analysis is by nuclear magnetic resonance (NMR) spectroscopy. The solvent accessible area of the FAT-domain is predominantly hydrophilic with hydrophobic patches located on the helix 1-helix 4 face and the helix 2-helix 3 face. The hydrophobic patches may be involved in paxillin binding interactions. Results from these analyses indicate that NMR approaches will be successful in delineating detailed binding interactions between the inhibitor peptide and the FAT domain.
The site of peptide binding and is determined and specificity of binding is analyzed. Different scrambled peptides are synthesized to analyze the specificity of NMR assay. Different mutant peptides are synthesized to determine specific amino-acids involved in this interaction.

Compound: CC(C)(C)n1nc(-c2ccc(Cl)cc2)c2c(N)ncnc21 [PP2]
- inhibition of VEGFR-3 phosphorylation (VEGFR-3): inhibited

Compound: HPWQWTISWPQW (listed as Homo sapiens) [scrambled peptide 35, control peptide, scrambled peptide 35, reference compound]
- displacement of FAK from focal adhesions, degradation of FAK, rounding, detachment [1]: not
- detachment [2]: minimal detachment
- apoptosis (with detachment / loss of focal adhesions) in cancer cells (cancer cells): not observed

Compound: WHWQWTPWSIQP (also: TAT and FITC conjugated; listed as Homo sapiens) [Peptide-35, coupled to TAT (and FITC) for cell penetration]
- binding to FAK-CD (C-terminal part of FAK) (FAK-CD): binds to specific sequences of FAK-CD
- binding to FAK-CD (C-terminal part of FAK) (FAK-CD; listed as peptide 35): binds to the C-terminal part of FAK and FAT domain
- displacement of FAK from focal adhesions, degradation of FAK, rounding, detachment [1]: cause displacement of FAK from focal adhesions, degradation of FAK, rounding, and detachment
- displacement of FAK from focal adhesions, degradation of FAK, rounding, detachment ([1]; listed as peptide-35): caused displacement of FAK from focal adhesions
- displacement of FAK from focal adhesions, degradation of FAK, rounding, detachment (normal MCF10A cells): not in normal MCF10A cells
- displacement of FAK from focal adhesions, degradation of FAK, rounding, detachment (normal MCF10A cells; listed as peptide-35): not in normal MCF10A breast cells
- detachment [3]: caused detachment
- detachment ([3]; listed as peptide-35): higher level of detachment
- detachment [2]: not in MCF10A normal breast cells
- detachment ([2]; listed as peptide-35): minimal detachment
- apoptosis [4]: caused detachment and apoptosis
- apoptosis ([4]; listed as peptide-35): higher level of apoptosis
- apoptosis [5]: not in MCF10A normal breast cells
- apoptosis ([5]; listed as peptide 35): not observed
- apoptosis (with detachment / loss of focal adhesions) in cancer cells (cancer cells): caused loss of focal adhesions and apoptosis
- apoptosis (with detachment / loss of focal adhesions) in cancer cells (cancer cells; listed as peptide 35): induces detachment and apoptosis

Compound: WHWRPWTPCKMF (also: TAT peptide conjugated; listed as Homo sapiens) [AV3, synthesized peptide homologous to twelve amino-acids of VEGFR-3; conjugated with TAT peptide for penetration into cells]
- apoptosis [5]: not observed
- detachment (IMR neuroblastoma cells [6]): increased detachment
- apoptosis (IMR neuroblastoma cells [7]): increased detachment and apoptosis
- detachment [8]: Mouse Fibroblast, FAK/FAK+. Greater
- binding to FAT domain by NMR [9]: detected binding
- apoptosis (with detachment / loss of focal adhesions) in cancer cells (cancer cells): induces detachment and apoptosis
- apoptosis (with detachment / loss of focal adhesions) in cancer cells (cancer cells; listed as VEGFR-3 (AV-3) peptide): caused apoptosis in cancer cells similar to peptide 35
